Like-named read-outs stand apart in the source and are kept apart here.
How the values were obtained:
FABP1 [1] = conditions: known Kd value, cited from earlier work
FABP1 [2] = target: T1, FABP1 (Mus musculus, UniProt P12710); assay: cis-parinaroyl-CoA displacement from FABP1; assay type: binding, murine; conditions: for fold stronger binding by FABP1 as compared to FABP3, FABP5, and FABP7: different displacement assays; for fold weaker binding to FABP1 than OEA: cis-parinaroyl-CoA displacement Kis; for Ki: displacement of FABP1-bound cis-parinaroyl-CoA (footnote a), 24°C, mean ± SEM, n=5, ND = no significant displacement
T1 sequence (P12710 1-127): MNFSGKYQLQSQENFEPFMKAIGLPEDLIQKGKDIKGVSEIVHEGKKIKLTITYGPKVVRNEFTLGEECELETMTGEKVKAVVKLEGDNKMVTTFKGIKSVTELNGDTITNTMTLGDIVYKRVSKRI

FABP1 [3] = target: T1, FABP1; assay: ANS displacement from FABP1; assay type: binding, murine
FABP1 [4] = target: T1, FABP1; assay: NBD-stearic acid displacement from FABP1; assay type: binding, murine; conditions: not shown
FABP1 [5] = target: T1, FABP1; assay: DAUDA displacement from FABP1; assay type: binding, murine; conditions: very high AEA concentration, e.g. 9 μM; not shown
ACBP = target: T2, ACBP (Mus musculus, UniProt P31786); assay: Direct binding to ACBP: intrinsic Tyr/Trp fluorescence; design: species or system murine; conditions: ACBP 500nM
T2 sequence (P31786 1-87): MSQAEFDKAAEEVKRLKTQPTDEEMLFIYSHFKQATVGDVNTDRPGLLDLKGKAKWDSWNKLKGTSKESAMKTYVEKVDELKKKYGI

FABP1 [6] = target: T1, FABP1; assay: Direct binding to FABP1: quenching of intrinsic Tyr fluorescence; design: species or system murine; conditions: FABP1 500nM, AEA 3μM
HSP70 = conditions: read-out: Kd of HSP70 binding AEA; cited from earlier work
[7] = in vivo; cited from earlier work
FABP4 = conditions: cited from earlier work
SCP2 [8] = target: T3, SCP2 (Homo sapiens, UniProt P22307); assay: NBD-stearic acid displacement from SCP2; assay type: binding; conditions: displacement of SCP2-bound NBD-stearic acid; SCP2 500nM, NBD-stearate 500nM
T3 sequence (P22307 21-143 isoform P22307-2 limits assumed): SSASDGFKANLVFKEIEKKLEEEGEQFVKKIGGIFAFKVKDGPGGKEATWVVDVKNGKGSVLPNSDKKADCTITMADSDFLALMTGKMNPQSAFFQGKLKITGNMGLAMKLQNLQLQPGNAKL

FABP1 [9] = target: T1, FABP1; assay: NBD-AEA displacement from FABP1; assay type: binding, murine; conditions: for displacement of / effect on FABP1-bound NBD-AEA (in words): FABP1 500nM, NBD-AEA 1μM
FABP1 [10] = target: T1, FABP1; assay: FABP1 binding of fluorescent ligands; design: species or system murine; conditions: read-out: Kd of FABP1 binding NBD-AEA; obtained herein (not shown)
SCP2 [11] = target: T3, SCP2; assay: Direct binding to SCP2: intrinsic Trp fluorescence
[12] = FABP1 500nM, cis-parinaroyl-CoA 500nM

## CC/C=C/C=C\C=C/C=C/CCCCCCCC(=O)SCCNC(=O)CCNC(=O)[C@H](O)C(C)(C)COP(=O)(O)OP(=O)(O)OC[C@H]1O[C@@H](n2cnc3c(N)ncnc32)[C@H](O)[C@@H]1OP(=O)(O)O (relative stereo) [cis-parinaroyl-CoA]
FABP1 [1]; read-out: Kd1 of FABP1 binding cis-parinaroyl-CoA
  Kd: 27 ± 4 nM
FABP1 [1]; read-out: Kd2 of FABP1 binding cis-parinaroyl-CoA
  Kd: 66 ± 8 nM

## CCCCC/C=C\C/C=C\C/C=C\C/C=C\CCCC(=O)OC(CO)CO [2-AG, 2-arachidonoylglycerol]
FABP1 [2]
  fold stronger binding by FABP1 as compared to SCP2: ≥ 3 fold
  fold stronger binding by FABP1 as compared to FABP3, FABP5, and FABP7: 2–15 fold
FABP1 [2]; [12]
  maximal displacement of FABP1-bound cis-parinaroyl-CoA: about 50%

## CCCCC/C=C\C/C=C\C/C=C\C/C=C\CCCC(=O)NCCO [AEA, n-6 arachidonoylethanolamide]
FABP1 [2]; [12]
  maximal displacement of FABP1-bound cis-parinaroyl-CoA: about 50%
FABP1 [3]
  displacement of FABP1-bound ANS (in words): did not displace
FABP1 [4]
  displacement of FABP1-bound NBD-stearic acid (in words): did not displace
FABP1 [5]
  displacement of FABP1-bound DAUDA: 13%
ACBP
  quenching of ACBP aromatic amino acid (Tyr) fluorescence emission (in words): neither OEA nor AEA quenched
FABP1 [6]
  effect on FABP1 intrinsic Tyr fluorescence emission at 304 nm (in words): decreased
HSP70
  Kd: 3700 ± 500 nM

## CCCCC/C=C\C/C=C\C/C=C\C/C=C\CCCC(=O)Nc1ccc(O)cc1 [AM404]
FABP1 [2]; [12]
  maximal displacement of FABP1-bound cis-parinaroyl-CoA: about 50%

## CCCCC/C=C\C/C=C\C/C=C\C/C=C\CCCC(=O)O [ARA, arachidonic acid]
[7]
  first-pass clearance by liver: ~50%

## CCc1c(-c2ccccc2)c(-c2ccccc2)nn1-c1ccccc1-c1cccc(OCC(=O)O)c1 [BMS309403]
FABP4
  affinity of FABP4 for BMS309403: < 2 nM
FABP1 [2]; BMS309403
  fold stronger binding by FABP1 than FABP3: 10 fold
  fold stronger binding by FABP1 than FABP5: 12–50 fold
FABP1 [2]; [12]
  maximal displacement of FABP1-bound cis-parinaroyl-CoA (in words): almost completely
SCP2 [8]
  Ki: 5500 ± 500 nM

## C=C(C)[C@@H]1CCC(C)=C[C@H]1c1c(O)cc(CCCCC)cc1O [Cannabidiol, cannabidiol]
FABP1 [2]; [12]
  maximal displacement of FABP1-bound cis-parinaroyl-CoA: about 50%
FABP1 [2]
  fold stronger binding by FABP1 as compared to FABP3, FABP5, and FABP7: 9–11 fold

## CC/C=C\C/C=C\C/C=C\C/C=C\C/C=C\C/C=C\CCC(=O)NCCO [DHEA, n-3 docosahexaenoylethanolamide]
FABP1 [2]
  fold weaker binding to FABP1 than OEA: 4–10 fold

## CC/C=C\C/C=C\C/C=C\C/C=C\C/C=C\CCCC(=O)NCCO [EPEA, n-3 eicosapentaenoylethanolamide]
FABP1 [2]
  fold weaker binding to FABP1 than OEA: 4–10 fold
  Ki: 390 ± 30 nM

## CCCC(C)(C)c1ccc2c(c1)OC(C)(C)[C@@H]1CC=C(C)C[C@@H]21 [JWH-133]
FABP1 [2]
  Ki: did not displace
FABP1 [9]; displacement of FABP1-bound NBD-AEA (footnote b), 24°C, mean ± SEM, n=5, ND = no significant displacement
  Ki: did not displace

## O=C(CCC/C=C\C/C=C\C/C=C\C/C=C\CCCCCNc1ccc([N+](=O)[O-])c2nonc12)NCCO [NBD-AEA]
FABP1 [10]
  Kd: 700 ± 100 nM

## CCCCCCCC/C=C\CCCCCCCC(=O)NCCO [OEA, oleoylethanolamide]
SCP2 [11]
  Kd: 390 nM
SCP2 [11]; SCP2 500nM, OEA 1.4 μM
  effect on SCP2 Trp fluorescence emission (in words): significantly increased
ACBP
  quenching of ACBP aromatic amino acid (Tyr) fluorescence emission (in words): neither OEA nor AEA quenched

## CC(=O)Nc1ccc(Nc2nc(-c3ccc(Cl)c(Cl)c3)cs2)cc1 [SCPI1]
SCP2 [8]
  Ki: 680 ± 60 nM

## CCCCCc1cc(O)c2c(c1)OC(C)(C)[C@@H]1CCC(C)=C[C@@H]21 [THC, Δ^9-tetrahydrocannabinol]
FABP1 [2]; [12]
  maximal displacement of FABP1-bound cis-parinaroyl-CoA: about 50%
FABP1 [9]
  displacement of / effect on FABP1-bound NBD-AEA (in words): essentially all

## CCCCC/C=C\C/C=C\C/C=C\C/C=C\CCCC(=O)Nc1ccc(O)cc1C [VDM11]
FABP1 [2]; [12]
  maximal displacement of FABP1-bound cis-parinaroyl-CoA: about 50%

## CCCCCCCC/C=C\CCCCCCCC(=O)SCCNC(=O)CCNC(=O)[C@H](O)C(C)(C)COP(=O)(O)OP(=O)(O)OC[C@H]1O[C@@H](n2cnc3c(N)ncnc32)[C@H](O)[C@@H]1OP(=O)(O)O [oleoyl-CoA]
ACBP
  quenching of ACBP aromatic amino acid (Tyr) fluorescence emission (in words): significantly quenched

## SR-144528
FABP1 [9]
  displacement of / effect on FABP1-bound NBD-AEA (in words): increased the fluorescence
